What was measured:
[1] = tested on: Mus musculus; assay: Toxicity in mouse L1210 cells implanted CDF1 mouse assessed as average weight gain at 0.4 mg/kg, ip qd for 1 to 5 days; assay type: organism-based; design: dose 0.4 mg/kg, route intraperitoneal; details: in vivo
[2] = tested on: L1210; assay: Antitumor activity against mouse L1210 cells implanted in CDF1 mouse assessed as median survival time at 25.6 mg/kg, ip single dose on day 1; assay type: functional; details: route intraperitoneal
[3] = tested on: Mus musculus; assay: Toxicity in mouse L1210 cells implanted CDF1 mouse assessed as survivors on day 5 at 6.4 mg/kg, ip single dose on day 1; assay type: organism-based; design: dose 6.4 mg/kg, route intraperitoneal; details: in vivo
[4] = tested on: Mus musculus; assay: Toxicity in mouse L1210 cells implanted CDF1 mouse assessed as average weight gain at 3.2 mg/kg, ip single dose on day 1; assay type: organism-based; design: dose 3.2 mg/kg, route intraperitoneal; details: in vivo
[5] = tested on: Mus musculus; assay: Toxicity in mouse L1210 cells implanted CDF1 mouse assessed as average weight gain at 1.6 mg/kg, ip qd for 1 to 5 days; assay type: organism-based; design: dose 1.6 mg/kg, route intraperitoneal; details: in vivo
[6] = tested on: L1210; assay: Antitumor activity against mouse L1210 cells implanted in CDF1 mouse assessed as median survival time at 0.2 mg/kg, ip single dose on day 1; assay type: functional; details: route intraperitoneal
[7] = tested on: Mus musculus; assay: Toxicity in mouse L1210 cells implanted CDF1 mouse assessed as survivors on day 5 at 1.6 mg/kg, ip single dose on day 1; assay type: organism-based; design: dose 1.6 mg/kg, route intraperitoneal; details: in vivo
[8] = tested on: L1210; assay: Antitumor activity against mouse L1210 cells implanted in CDF1 mouse at 3.2 mg/kg, ip single dose on day 1 relative to control; assay type: functional; details: route intraperitoneal
[9] = tested on: Mus musculus; assay: Toxicity in mouse L1210 cells implanted CDF1 mouse assessed as average weight gain at 0.4 mg/kg, ip single dose on day 1; assay type: organism-based; design: dose 0.4 mg/kg, route intraperitoneal; details: in vivo
[10] = tested on: Mus musculus; assay: Toxicity in mouse L1210 cells implanted CDF1 mouse assessed as survivors on day 5 at 12.8 mg/kg, ip single dose on day 1; assay type: organism-based; design: dose 12.8 mg/kg, route intraperitoneal; details: in vivo
[11] = tested on: Mus musculus; assay: Toxicity in mouse L1210 cells implanted CDF1 mouse assessed as survivors on day 5 at 0.8 mg/kg, ip qd for 1 to 5 days; assay type: organism-based; design: dose 0.8 mg/kg, route intraperitoneal; details: in vivo
[12] = tested on: Mus musculus; assay: Toxicity in mouse L1210 cells implanted CDF1 mouse assessed as average weight gain at 1.6 mg/kg, ip single dose on day 1; assay type: organism-based; design: dose 1.6 mg/kg, route intraperitoneal; details: in vivo
[13] = tested on: Mus musculus; assay: Toxicity in mouse L1210 cells implanted CDF1 mouse assessed as survivors on day 5 at 25.6 mg/kg, ip single dose on day 1; assay type: organism-based; design: dose 25.6 mg/kg, route intraperitoneal; details: in vivo
[14] = tested on: L1210; assay: Antitumor activity against mouse L1210 cells implanted in CDF1 mouse at 0.2 mg/kg, ip qd for 1 to 5 days relative to control; assay type: functional; details: route intraperitoneal
[15] = tested on: L1210; assay: Antitumor activity against mouse L1210 cells implanted in CDF1 mouse assessed as median survival time at 6.4 mg/kg, ip single dose on day 1; assay type: functional; details: route intraperitoneal
[16] = tested on: L1210; assay: Antitumor activity against mouse L1210 cells implanted in CDF1 mouse at 1.6 mg/kg, ip single dose on day 1 relative to control; assay type: functional; details: route intraperitoneal
[17] = tested on: L1210; assay: Antitumor activity against mouse L1210 cells implanted in CDF1 mouse at 6.4 mg/kg, ip single dose on day 1 relative to control; assay type: functional; details: route intraperitoneal
[18] = tested on: Mus musculus; assay: Toxicity in mouse L1210 cells implanted CDF1 mouse assessed as average weight gain at 0.8 mg/kg, ip single dose on day 1; assay type: organism-based; design: dose 0.8 mg/kg, route intraperitoneal; details: in vivo
[19] = tested on: L1210; assay: Antitumor activity against mouse L1210 cells implanted in CDF1 mouse assessed as median survival time at 0.4 mg/kg, ip single dose on day 1; assay type: functional; details: route intraperitoneal
[20] = tested on: Mus musculus; assay: Toxicity in mouse L1210 cells implanted CDF1 mouse assessed as average weight gain at 3.2 mg/kg, ip qd for 1 to 5 days; assay type: organism-based; design: dose 3.2 mg/kg, route intraperitoneal; details: in vivo
[21] = tested on: Mus musculus; assay: Toxicity in mouse L1210 cells implanted CDF1 mouse assessed as survivors on day 5 at 0.4 mg/kg, ip single dose on day 1; assay type: organism-based; design: dose 0.4 mg/kg, route intraperitoneal; details: in vivo
[22] = tested on: L1210; assay: Antitumor activity against mouse L1210 cells implanted in CDF1 mouse assessed as median survival time at 0.2 mg/kg, ip qd for 1 to 5 days; assay type: functional; details: route intraperitoneal
[23] = tested on: L1210; assay: Antitumor activity against mouse L1210 cells implanted in CDF1 mouse assessed as median survival time at 3.2 mg/kg, ip qd for 1 to 5 days; assay type: functional; details: route intraperitoneal
[24] = tested on: Mus musculus; assay: Toxicity in mouse L1210 cells implanted CDF1 mouse assessed as survivors on day 5 at 0.4 mg/kg, ip qd for 1 to 5 days; assay type: organism-based; design: dose 0.4 mg/kg, route intraperitoneal; details: in vivo
[25] = tested on: L1210; assay: Antitumor activity against mouse L1210 cells implanted in CDF1 mouse assessed as median survival time at 0.8 mg/kg, ip single dose on day 1; assay type: functional; details: route intraperitoneal
[26] = tested on: Mus musculus; assay: Toxicity in mouse L1210 cells implanted CDF1 mouse assessed as survivors on day 5 at 0.8 mg/kg, ip single dose on day 1; assay type: organism-based; design: dose 0.8 mg/kg, route intraperitoneal; details: in vivo
[27] = tested on: L1210; assay: Antitumor activity against mouse L1210 cells implanted in CDF1 mouse assessed as median survival time at 1.6 mg/kg, ip qd for 1 to 5 days; assay type: functional; details: route intraperitoneal
[28] = tested on: L1210; assay: Antitumor activity against mouse L1210 cells implanted in CDF1 mouse at 6.4 mg/kg, ip qd for 1 to 5 days relative to control; assay type: functional; details: route intraperitoneal

SMILES: CC[C@@]1(O)C[C@H](O[C@H]2C[C@H](NC)[C@H](O[C@H]3C[C@H](O)[C@H](O)[C@H](C)O3)[C@H](C)O2)c2c(cc3c(c2O)C(=O)c2c(O)ccc(O)c2C3=O)[C@H]1C(=O)OC [SCHAUNARDIMYCIN]
- weight gain [1]: 2.6 g
- MST [2]: 8 days
- Activity [3]: Active
- Activity [4]: 3.2 g
- weight gain [5]: 3 g
- MST [6]: 6 days
- Activity [7]: Active
- T/C [8]: 117%
- weight gain [9]: 2.8 g
- Activity [10]: Active
- Activity [11]: Active
- weight gain [12]: 2.7 g
- Activity [13]: Active
- T/C [14]: 117%
- MST [15]: 7 days
- T/C [16]: 108%
- T/C [17]: 117%
- weight gain [18]: 2.8 g
- MST [19]: 6 days
- Activity [20]: 2.8 g
- Activity [21]: Active
- MST [22]: 7 days
- MST [23]: 8 days
- Activity [24]: Active
- MST [25]: 6 days
- Activity [26]: Active
- MST [27]: 7.5 days
- T/C [28]: 133%
